# Values quoted from earlier work in article PMC7207041 (Medicinal chemistry research : an international journal for …, 2020).
# Key:
# [1] = test system: Nrf2-regulated proteins; conditions: WT mice; ref Walsh et al. 2014
# [2] = test system: ARE-mediated genes in HepG2 cells; conditions: read-out: EC50, activation of ARE-mediated genes, ref Hu et al. 2013b
# [3] = test system: cultured human kidney cells (HEK293); conditions: HEK293, 50 and 100 μM; ref Wen et al. 2015
# [4] = ref Lazzara et al. 2020
# [5] = human liver microsomes; ref Lazzara et al. 2020
# [6] = test system: Nrf2 target genes
# [7] = biological target: Keap1 Kelch domain; conditions: read-out: Kd in ITC assay; ref Winkel et al. 2015
# [8] = human, mouse, and rat; ref Winkel et al. 2015
# [9] = test system: GCLC and NQO1; conditions: mouse, administered together with a cytochrome P450 inhibitor; ref Winkel et al. 2015
# [10] = test system: Keap1-Nrf2 PPI; conditions: read-out: IC50 in FP assay; ref Jiang et al. 2018
# [11] = test system: LPS-induced cardiomyopathy; conditions: ref Jiang et al. 2018
# [12] = biological target: Keap1-Nrf2 PPI; conditions: same FP assay conditions; ref Tran et al. 2019
compound,measurement,setting,value
"COC(=O)[C@]12CCC(C)(C)C[C@H]1[C@H]1C(=O)C=C3[C@@]4(C)C=C(C#N)C(=O)C(C)(C)[C@@H]4CC[C@@]3(C)[C@]1(C)CC2 [CDDO-Me, bardoxolone methyl]",number of proteins changed by treatment,[1],43 proteins
O=C(O)[C@H]1CCCC[C@H]1C(=O)N1CCc2ccccc2[C@H]1CN1C(=O)c2ccccc2C1=O [Compound 1],EC50,[2],18 µM
same,HO-1 protein expression enhancement,[3],3.5 fold
same,TRX1 protein expression enhancement,[3],2–4 fold
COc1ccc(S(=O)(=O)N(CC(F)(F)F)c2cnc(N(CC(=O)O)S(=O)(=O)c3ccc(OC)cc3)c3ccccc23)cc1 [Compound 11],logD7.4,[4],0.5
same,metabolic stability t1/2,[5],2.27 h
same,cellular levels of Nrf2 and NQO1 expression,"[6]; compared with 10, ref Lazzara et al. 2020",remarkable increase
Cc1cc(C)c(C)c(S(=O)(=O)Nc2ccc(N3CC[C@H](C(=O)O)C3)c3ccccc23)c1C [Compound 12],Kd,[7],6 µM
same,metabolic stability in liver microsomes,[8],low metabolic stability
same,hepatic mRNA levels of GCLC and NQO1,[9],significantly increased
C=CCOC(=O)/N=c1\oc2cc(N(CC)CC)ccc2cc1-c1nc2ccccc2s1 [Compound 25],IC50,[10],5.1 µM
same,effect in mouse model of LPS-induced cardiomyopathy,[11],cardiac protective effect
same,mRNA levels of Nrf2 target genes (HO-1 and NQO1),"[6]; H9c2 cardiac cells, ref Jiang et al. 2018",significant increase
O=[N+]([O-])c1ccc(Sc2nnc(COc3ccccc3)n2-c2ccccc2)c2ncccc12 [Compound 30],Comparative assessment by Bach et. al. FP (Ki μM),[12],NA (≤77)
same,expression of Nrf2-responsive proteins NQO1 and GCLM,[6]; ref Kazantsev et al. 2014,induced expression
